These results are taken from publication PMC11637191, “The pH-dependence of efflux ratios determined with bidirectional transport assays across cellular monolayers” (International Journal of Pharmaceutics: X, 2024).

A short description of data set [1]: Measurement of paracellular transport (Ppara) in MDCK-MDR1 cells with and without P-gp inhibitors. Particulars: dog; for Papp: MDCK-MDR1, with elacridar 2 µM. The data set is classed as in vitro ADME, canine. The text has this: (§1) In initial fits, we used experimentally obtained values for Ppara , determined by measuring the Papp of the relevant compound at a pH value where paracellular transport was expected to dominate. Since the compounds in this study are P-gp substrates, elacridar was also used to inhibit P-gp. Under these conditions, the measured Papp is expected to be a measure of Ppara . […]
(§2) X Measurement of paracellular transport […]
(§3) assess its relative contribution to overall flux, it is necessary to quantify paracellular transport in some way. An approximation of paracellular transport can be mathematically calculated as desc ribed in […]
(§4) and cell type can influence and complicate the predictions, leading to uncertainties. H owever, it can also be experimentally measured provided that it can be assured that the P app would be dominated by the contribution of P para . […]
(§5) compounds. In order to ensure paracellular dominance, 2 µM elacridar was used to inhibit potential P-gp facilitated efflux, and the transport buffer was set to a pH that would severely restrict the neutral […]
(§6) Table S13: P app values and measured logP para for basic and acidic marker compounds. P app values are the mean of three timepoints per replicate, for a total of three replicates (n = 3) ± standard […]
(§7) Compound pH Papp, A⟶B logP para Recovery fn
(§8) In light of the uncertainties in predicting P para , it was presumed more apt to measure P para for each compound individually in parallel with the pH dependence experiments. As described in Section 4.3 of the main text, experiments were initially performed for each tested compound with inhibitor and appropriate pH values (similar to those performed for Table S12) in an attempt to ensure the dominance of paracellular transport. These values could then be used as a direct measure for P para for each compound that could be fed to the model for its individual fit. […]
(§9) affecting P para and/or the measurement of it, we measured the P app of more commonly-used markers for paracellular transport with and without inhibitor. The transport of these rather hydrophilic compounds is known to be dominated by the paracellular route. Furthermore, for our MDCK- MDR1 […]
(§10) efflux is not expected to play a role. As such, the addition of inhibitor in this case is purely to evaluate if the P app changes when it is present.

The conditions of data set [2]: determined 25 °C; etoposide acidic, acebutolol basic; ref Avdeef, 2012; cited from earlier work.
A further data set can be described thus: in vitro. The following applies: dog.
The test system of data set [3] is P-gp (MDR1). The data set can be described thus: in vitro. Particulars: dog.
In data set [4] the test system is MDCK-MDR1 cells. The following applies: pH 7.4 iso-method, ref Troutman and Thakker (2003), cited from earlier work.
A short description of data set [5]: Calculation of neutral fraction (fn).
Data set [6] concerns MDCK-MDR1 cells. The data set can be described thus: Comparison of Papp,B-A with and without inhibitor in MDCK-MDR1 cells (own and literature data).
Data set [7] deals with P-gp (MDR1). The description is as above. The following applies: dog, This study, varying pH with the iso-method.
The subject of data set [8] is P-gp (MDR1). The data set can be described thus: Measurement of paracellular transport (Ppara) in MDCK-MDR1 cells with and without P-gp inhibitors. The data set is classed as in vitro ADME, canine. The following applies: dog, pH 7.4, one replicate.
Text: as §1, §2, §3, §4, §5, §6, §7, §8, §9, §10

“And” between values parts separate entries of the source, which are not always exact repeats. Identical values can stand only once. Like-named read-outs stand apart in the source and are kept apart here.

With `CCCC(=O)Nc1ccc(OCC(O)CNC(C)C)c(C(C)=O)c1` (centres unmarked) [Acebutolol], the recovery in data set [1] (MDCK-MDR1, pH 5, with elacridar 2 µM, + 2 µM elacridar, pH 5, n = 3 (Table S13)) is 100%; in “in vitro” (MDCK-MDR1, pH 5), 90 to 106%; in “in vitro” (MDCK-MDR1, pH 6), 88 to 120%; in the data set “in vitro” (MDCK-MDR1, pH 7), 88 to 102%; in the data set “in vitro” (MDCK-MDR1, pH 8) it was 78 to 83%; in “in vitro” (MDCK-MDR1, pH 9), 72 to 79%. For the same compound, the Papp in [1] (+ 2 µM elacridar, pH 5, three replicates (n = 3) (Table S13)) amounted to 0.6 ± 0.2 ×10⁻⁶ cm/s; with P-gp (MDR1) [3] (MDCK-MDR1, pH 5), 0.31 ± 0.11 ×10⁻⁶ cm/s; in the data set with P-gp (MDR1) [3] (MDCK-MDR1, pH 6), 0.1 ± 0.02 ×10⁻⁶ cm/s; in the data set on P-gp (MDR1) [3] (MDCK-MDR1, pH 7) it was 0.18 ± 0.02 ×10⁻⁶ cm/s; with P-gp (MDR1) [3] (MDCK-MDR1, pH 8), 0.61 ± 0.28 ×10⁻⁶ cm/s; in the data set on P-gp (MDR1) [3] (MDCK-MDR1, pH 9) it was 7.41 ± 3.04 ×10⁻⁶ cm/s. The Papp in the data set with P-gp (MDR1) [7] (MDCK-MDR1, Papp, B⟶A, without inhibitor) was 16.7 ×10⁻⁶ cm/s; with P-gp (MDR1) [7] (MDCK-MDR1, pH 8, with P-gp inhibitor (elacridar 2 µM in this study's P0 assays), Papp, inhibitor, with inhibitor), 5.03 ×10⁻⁶ cm/s. In addition, in data set [2], the pKa is given as 9.18. Further, the Papp B→A was 0.28 ± 0.05 ×10⁻⁶ cm/s with P-gp (MDR1) [3] (MDCK-MDR1, pH 5); 0.47 ± 0.07 ×10⁻⁶ cm/s in the data set with P-gp (MDR1) [3] (MDCK-MDR1, pH 6); 2.92 ± 1.12 ×10⁻⁶ cm/s in the data set with P-gp (MDR1) [3] (MDCK-MDR1, pH 7); 16.7 ± 2.4 ×10⁻⁶ cm/s with P-gp (MDR1) [3] (MDCK-MDR1, pH 8); 38.5 ± 8.5 ×10⁻⁶ cm/s with P-gp (MDR1) [3] (MDCK-MDR1, pH 9). The “Papp, inhibitor” value in the data set on MDCK-MDR1 cells [4] (with inhibitor) was 3.73 ×10⁻⁶ cm/s; with MDCK-MDR1 cells [6] (This study, with inhibitor, varying pH with the iso-method), 3.16 ×10⁻⁶ cm/s. The “Papp, B⟶A” value in the data set with MDCK-MDR1 cells [4] (without inhibitor) was 17.2 ×10⁻⁶ cm/s; in the data set with MDCK-MDR1 cells [6] (This study, without inhibitor, varying pH with the iso-method) it was 16.7 ×10⁻⁶ cm/s. In addition, the fn was 0.0% in [5] (neutral fraction at pH 5) and 6% in [5] (neutral fraction at pH 8). For the same compound, the Factor difference with MDCK-MDR1 cells [6] (This study, Papp,B⟶A vs Papp with inhibitor, varying pH with the iso-method) was 3 and 5; in the data set on MDCK-MDR1 cells [6] (calculated from literature Papp,B⟶A and Papp with inhibitor, pH 7.4 iso-method), 5.
Regarding `NS(=O)(=O)c1cc2c(cc1Cl)N=CNS2(=O)=O` [Chlorothiazide], the recovery in data set [1] (MDCK-MDR1, pH 7.4, A⟶B, no inhibitor, pH 7.4) worked out at 125%; in [1] (MDCK-MDR1, pH 7.4, B⟶A, no inhibitor, pH 7.4), 104%; in data set [1] (MDCK-MDR1, pH 7.4, with cyclosporin A 10 µM, A⟶B + cyclosporin-A, pH 7.4) it was 108%; in data set [1] (MDCK-MDR1, pH 7.4, with elacridar 2 µM, A⟶B + elacridar, pH 7.4) it was 100%; in [1] (MDCK-MDR1, pH 7.4, with verapamil 100 µM, A⟶B + verapamil, pH 7.4), 96%; in data set [1] (MDCK-MDR1, pH 9, with elacridar 2 µM, + 2 µM elacridar, pH 9, n = 3 (Table S13)) it was 105%. For the same compound, the Papp in data set [1] (+ 2 µM elacridar, pH 9, three replicates (n = 3) (Table S13)) was 1.7 ± 0.7 ×10⁻⁶ cm/s; in the data set on P-gp (MDR1) [8] (MDCK-MDR1, with cyclosporin A 10 µM, A → B + cyclosporin-A (10 μM)) it was 0.7 ×10⁻⁶ cm/s; with P-gp (MDR1) [8] (MDCK-MDR1, with elacridar 2 µM, A → B + elacridar (2 μM)), 0.9 ×10⁻⁶ cm/s; in the data set with P-gp (MDR1) [8] (MDCK-MDR1, with verapamil 100 µM, A → B + verapamil (100 μM)) it was 1.4 ± 0.1 ×10⁻⁶ cm/s; with P-gp (MDR1) [8] (MDCK-MDR1, A → B, no inhibitor), 0.2 ×10⁻⁶ cm/s. In addition, the fn in data set [5] (neutral fraction at pH 7.4) is given as 16.5%; in data set [5] (neutral fraction at pH 9), 0.8%.
